Reference: article PMC8907375, “Arylated analogues of cypronazole: fungicidal effect and activity on human fibroblasts. Docking analysis and molecular dynamics simulations” (Natural Products and Bioprospecting, 2022)
Values after ≈ are worked out from the molar mass of the structure shown. Where two headings read alike, the source gives them in different places.

How the values were obtained:
[1] = system: A. niger (ATCC 9029); assay: In vitro antifungal activity, broth microdilution (MIC100); type: cell-based, Aspergillus niger; details: 48 h, total growth inhibition; for MIC100 (complete growth inhibition): Aspergillus niger, ATCC9029, 30 °C, read-out: Fungicidal activity MIC100, AN; for Fungicidal activity MIC100, AN: 30 °C
Procedure: (§1) Fungal growth was assessed at six concentrations (3.1–100 μg/mL), using enriched Czapek broth in the presence of triazole 1-8 (Fig. 2). Each treatment was carried out in triplicate. The Minimum Inhibitory Concentration (MIC100) was determined and was defined as the minimum concentration required to inhibit the complete fungal growth inhibition under the conditions of the assay. Triadimefon (TDM) and cyproconazole (CPZ) were used as positive control. In order to evaluate the efficacy of the new compounds to control fungi affecting vineyards, imperfect fungi isolated from infected grapes from the province of San Juan in Argentina were employed. Significant differences were determined by t-Student hypothesis test p, at 95% confidence. In general, moderate to good activity was observed compared to the reference compounds as well as some selectivity against microorganisms.
(§2) The imperfect fungi used for the assays included Botrytis cinerea isolated from grapevine samples, Aspergillus fumigatus (ATTC 26934), A. niger (ATCC 9029), A. ustus (PN-S4), A. japonicus (M15C), A. terreus (M16C) and Fusarium oxysporum (M15-Pa) isolated from soil samples from the province of San Juan, Argentina. The microorganisms were grown on Czapek-yeast extract agar (CYA) prepared with yeast extract, K2HPO4, saccharose, agar, distilled water and enriched with a solution of mineral salts (NaNO3, KCl, MgSO4.7H2O and FeSO4.7 H2O). Inocula were adjusted to 1–5 × 10^4 colony forming units (CFU/ mL).
(§3) The minimum inhibitory concentration (MIC) of each compound was evaluated using broth microdilution techniques in 96-well microtiter plates according to the guidelines of the National Committee for Clinical Laboratory Standards for filamentous fungi M 38 A. The starting inoculum was 1–5 × 10^4 CFU/mL in accordance with the Clinical and Laboratory Standards Institute (CLSI, formerly the National Committee for Clinical Laboratory Standards [NCCLS]) (M27-A3 document for yeasts, and M38-A2 document for filamentous fungi).
(§4) Microtiter plates were incubated at 30 °C for Aspergillus and Fusarium, and 22 °C for B. cinerea in a moist and dark chamber. MIC values were recorded after 48 h for Aspergillus and Fusarium spp., and after 72 h for B. cinerea, according to the fungal growth control. TDM and CPZ were used as positive controls (12.5–50 μg/mL). Stock solutions were two-fold diluted with RPMI from 1000 to 0.98 μg/mL (final volume equal to 100 μL), and a final DMSO concentration ≤ 1%. An inoculum suspension (100 μL) was added to each well with the exception of the sterility control. Endpoints were defined as the lowest compound concentration resulting in total growth inhibition (MIC100) compared to the growth in control wells. MICs values ≤ 50 μg/mL were considered of interest. The assay was carried out in triplicate.

[2] = system: A. terreus (M16C); assay: as above; type: cell-based, Aspergillus terreus; details: 48 h; for MIC100 (complete growth inhibition): Aspergillus terreus, read-out: Fungicidal activity MIC100, AT, A. terreus, 30 °C, total growth inhibition
Procedure: as §1, §2, §3, §4

[3] = system: A. ustus (PN-S4); assay: as above; type: cell-based, Aspergillus ustus; details: 30 °C, 48 h, total growth inhibition; for MIC100 (complete growth inhibition): Aspergillus ustus, read-out: Fungicidal activity MIC100, AU
Procedure: as §1, §2, §3, §4

[4] = Cytotoxicity, neutral red uptake assay; type: cell-based, human; details: human
Procedure: (§5) The cytotoxic effect of the compounds, expressed as cell viability, was assessed on a permanent fibroblast cell line derived from human lung (MRC-5) (ATCC CCL-171). MRC-5 fibroblasts were grown as monolayers in minimum essential Eagle medium (MEM) with Earle’s salts, 2 mM l-glutamine and 2.2 g/L sodium bicarbonate, supplemented with 10% heat inactivated fetal bovine serum (FBS), 100 IU/mL penicillin and 100 µg/mL streptomycin in a humidified incubator with 5% CO2 in the air at 37 °C. Cell passage was maintained between 10 and 16. The medium was changed every 2 days.
(§6) Confluent cultures of MRC-5 fibroblasts were treated with medium containing the compounds at concentrations ranging from 0 to 1000 µM. For comparison purposes, the commercial antifungals CPZ and TDM were used as references, the products were first dissolved in DMSO and then in MEM, supplemented with 2% FBS. The final content of DMSO in the test medium and controls was 1%. Cells were exposed for 24 h to the test medium with or without the compound (control). Each concentration was tested in quadruplicate together with the control, and repeated three times in separate experiments. At the end of the incubation, the neutral red uptake (NRU) assay was carried out. To calculate the IC50 values (concentration that produces a 50% inhibitory effect on the evaluated parameter), the results were transformed to percentage of controls and the IC50 values were graphically obtained from the dose–response curves.

[5] = system: B. cinerea (isolated from grapes); assay: In vitro antifungal activity, broth microdilution (MIC100); type: cell-based, Botrytis cinerea; details: for Fungicidal activity MIC100, BC / MIC100 (complete growth inhibition): 22 °C, total growth inhibition
Procedure: as §1, §2, §3, §4

[6] = system: A. japonicus (M15C); assay: as above; type: cell-based, Aspergillus japonicus; details: 48 h; for MIC: read-out: Fungicidal activity MIC100, AJ; for Fungicidal activity MIC100, AJ: A. japonicus, 30 °C, total growth inhibition
Procedure: as §1, §2, §3, §4

[7] = system: Fusarium oxysporum (M15-Pa); assay: as above; type: cell-based; details: 30 °C, 48 h, total growth inhibition; for MIC100 (minimum concentration for complete growth inhibition): Fusarium oxysporum, F. oxysporum, read-out: Fungicidal activity MIC100, F
Procedure: as §1, §2, §3, §4

[8] = system: Aspergillus fumigatus (ATTC 26934); assay: as above; type: cell-based; details: A. fumigatus, 30 °C, 48 h, total growth inhibition; for Minimum inhibitory concentration (MIC100): Aspergillus fumigatus, read-out: Fungicidal activity MIC100, AF
Procedure: as §1, §2, §3, §4

[9] = system: human lung fibroblasts MRC-5; assay: Cytotoxicity, neutral red uptake assay; type: cell-based
Procedure: as §5, §6

[10] = Botrytis cinerea, B. cinerea, 72 h, read-out: Fungicidal activity MIC100, BC
[11] = Botrytis cinerea, B. cinerea, molar conversion of the µg/mL value, read-out: MIC100 against B. cinerea expressed

## CC(C)(C)C(=O)C(Oc1ccc(-c2ccccc2)cc1)n1cncn1 (centres unmarked) [Compound 1, 1-(Biphenyl-4-yloxy)-3,3-dimethyl-1-(1H-1,2,4-triazol-1-yl)butan-2-one]
[1]
  MIC100 (complete growth inhibition): 50 ± 1.7 µg/mL (≈ 149 µM)
[2]
  MIC100 (complete growth inhibition): ≥ 100 µg/mL
[3]
  MIC100 (complete growth inhibition): 50 ± 1.2 µg/mL (≈ 149 µM)
[4]
  IC50 at 24 h: 389 ± 23.5 µM
[5]; B. cinerea, 72 h
  Fungicidal activity MIC100, BC: 10 ± 0.7 µg/mL
[5]; Botrytis cinerea, 72 h, read-out: Fungicidal activity MIC100, BC
  MFC: 10 µg/mL (≈ 29.8 µM)
[5]; Botrytis cinerea, read-out: MIC100 against B. cinerea expressed in µM
  MIC: 29.8 µM (≈ 10 µg/mL)
[6]
  MIC: ≥ 100 µg/mL
[7]
  MIC100 (minimum concentration for complete growth inhibition): ≥ 100 µg/mL
[8]
  Minimum inhibitory concentration (MIC100): 80 ± 2.5 µg/mL (≈ 239 µM)

## CC(C)(C)C(=O)C(Oc1ccc(-c2ccc(F)cc2)cc1)n1cncn1 (centres unmarked) [Compound 2]
[1]
  MIC100 (complete growth inhibition): ≥ 100 µg/mL
[2]
  MIC100 (complete growth inhibition): ≥ 100 µg/mL
[3]
  MIC100 (complete growth inhibition): ≥ 100 µg/mL
[4]
  IC50 at 24 h: 90 ± 4.3 µM
[5]; [10]
  MIC100 (complete growth inhibition): ≥ 100 µg/mL
[6]
  MIC: ≥ 100 µg/mL
[7]
  MIC100 (minimum concentration for complete growth inhibition): ≥ 100 µg/mL
[8]
  Minimum inhibitory concentration (MIC100): ≥ 100 µg/mL

## CC(C1CC1)C(O)(Cn1cncn1)c1ccc(-c2ccccc2)cc1 (centres unmarked) [Compound 3, 2-(Biphenyl-4-yl)-3-cyclopropyl-1-(1H-1,2,4-triazol-1-yl)butan-2-ol]
[1]
  Fungicidal activity MIC100, AN: 3.12 ± 0.3 µg/mL
  MIC100 (complete growth inhibition): 3.12 µg/mL (≈ 9.36 µM)
[2]
  MIC100 (complete growth inhibition): ≥ 100 µg/mL
[3]
  Fungicidal activity MIC100, AU: 6.25 ± 0.3 µg/mL
  MIC100 (complete growth inhibition): 6.25 µg/mL (≈ 18.7 µM)
[4]
  IC50 at 24 h: 118 ± 9.4 µM
[5]; B. cinerea, 72 h
  Fungicidal activity MIC100, BC: 25 ± 1.4 µg/mL
[5]; [10]
  MIC100 (complete growth inhibition): 25 µg/mL (≈ 75 µM)
[5]; [11]
  MIC: 75 µM (≈ 25 µg/mL)
[6]
  MIC: 12.5 µg/mL (≈ 37.5 µM)
  Fungicidal activity MIC100, AJ: 12.5 ± 0.8 µg/mL
[7]
  Fungicidal activity MIC100, F: 5 ± 0.4 µg/mL
  MIC100 (minimum concentration for complete growth inhibition): 5 µg/mL
[8]
  Minimum inhibitory concentration (MIC100): ≥ 100 µg/mL

## COc1ccc(-c2ccc(C(O)(Cn3cncn3)C(C)C3CC3)cc2)cc1 (centres unmarked) [Compound 5, 3-Cyclopropyl-2-(4'-methoxy-[1,1'-biphenyl]-4-yl)-1-(1H-1,2,4-triazol-1-yl)butan-2-ol]
[1]
  Fungicidal activity MIC100, AN: 6.25 ± 0.4 µg/mL
  MIC100 (complete growth inhibition): 6.25 µg/mL (≈ 17.2 µM)
[2]
  MIC100 (complete growth inhibition): ≥ 100 µg/mL
[3]
  MIC100 (complete growth inhibition): ≥ 100 µg/mL
[4]
  IC50 at 24 h: 732 ± 29.3 µM
[5]; [10]
  MIC100 (complete growth inhibition): ≥ 100 µg/mL
[6]
  MIC: ≥ 100 µg/mL
[7]
  MIC100 (minimum concentration for complete growth inhibition): ≥ 100 µg/mL
[8]
  Minimum inhibitory concentration (MIC100): ≥ 100 µg/mL

## CC(C1CC1)C(O)(Cn1cncn1)c1ccc(-c2ccc([N+](=O)[O-])cc2)cc1 (centres unmarked) [Compound 6, 3-Cyclopropyl-2-(4'-nitro-[1,1'-biphenyl]-4-yl)-1-(1H-1,2,4-triazol-1-yl)butan-2-ol]
[1]
  MIC100 (complete growth inhibition): ≥ 100 µg/mL
[2]
  MIC100 (complete growth inhibition): ≥ 100 µg/mL
[3]
  MIC100 (complete growth inhibition): ≥ 100 µg/mL
[5]; [10]
  MIC100 (complete growth inhibition): ≥ 100 µg/mL
[6]
  MIC: ≥ 100 µg/mL
[7]
  MIC100 (minimum concentration for complete growth inhibition): ≥ 100 µg/mL
[8]
  Minimum inhibitory concentration (MIC100): ≥ 100 µg/mL

## CC(C1CC1)C(O)(Cn1cncn1)c1ccc(-c2ccc3ccccc3c2)cc1 (centres unmarked) [Compound 7]
[1]
  MIC100 (complete growth inhibition): ≥ 100 µg/mL
[2]
  MIC100 (complete growth inhibition): ≥ 100 µg/mL
[3]
  Fungicidal activity MIC100, AU: 6.25 ± 0.3 µg/mL
  MIC100 (complete growth inhibition): 6.25 µg/mL (≈ 16.3 µM)
[4]
  IC50 at 24 h: 49.1 ± 3.4 µM
[5]; [10]
  MIC100 (complete growth inhibition): ≥ 100 µg/mL
[6]
  MIC: ≥ 100 µg/mL
[7]
  MIC100 (minimum concentration for complete growth inhibition): ≥ 100 µg/mL
[8]
  Minimum inhibitory concentration (MIC100): ≥ 100 µg/mL

## c1nc[nH]n1 [Compound 8, 1H-1,2,4-Triazole]
[1]
  Fungicidal activity MIC100, AN: ≥ 100 µg/mL
[2]; A. terreus, 30 °C, total growth inhibition
  Fungicidal activity MIC100, AT: ≥ 100 µg/mL
[3]
  Fungicidal activity MIC100, AU: ≥ 100 µg/mL
[9]
  IC50: > 1000 µM
[6]
  Fungicidal activity MIC100, AJ: ≥ 100 µg/mL
[7]
  Fungicidal activity MIC100, F: ≥ 100 µg/mL
[8]
  Fungicidal activity MIC100, AF: ≥ 100 µg/mL

## CC(C)(C)C(=O)C(Oc1ccc(Cl)cc1)n1cncn1 (centres unmarked) [TDM, 1-(4-chlorofenoxy)-3,3-dimethyl-1-(1H-1,2,4-triazol-1-yl)butan-2-one, reference compound]
[1]
  MIC100 (complete growth inhibition): ≥ 100 µg/mL
[2]
  MIC100 (complete growth inhibition): > 100 µg/mL
[3]
  MIC100 (complete growth inhibition): 80 ± 2.6 µg/mL (≈ 272 µM)
[4]; MRC-5 fibroblasts, 24 h exposure, neutral red uptake, ± SD, read-out: Cytotoxicity IC50
  IC50 at 24 h: 248 ± 12.4 µM
[5]; B. cinerea, 72 h
  Fungicidal activity MIC100, BC: 80 ± 2.2 µg/mL
[5]; [10]
  MIC100 (complete growth inhibition): 80 µg/mL (≈ 272 µM)
[5]; [11]
  MIC: 274 µM (≈ 80.5 µg/mL)
[6]
  MIC: ≥ 100 µg/mL
[7]
  MIC100 (minimum concentration for complete growth inhibition): ≥ 100 µg/mL
[8]
  Fungicidal activity MIC100, AF: 80 ± 2.4 µg/mL
  Minimum inhibitory concentration (MIC100): 80 µg/mL (≈ 272 µM)

## C[C@@H](c1ncncc1F)[C@](O)(Cn1cncn1)c1ccc(F)cc1F [VOR, voriconazole, reference compound]
[1]
  MIC100 (complete growth inhibition): 1.25 ± 0.4 µg/mL (≈ 3.58 µM)
[2]
  MIC100 (complete growth inhibition): 6.25 ± 0.8 µg/mL (≈ 17.9 µM)
[3]
  Fungicidal activity MIC100, AU: 1.25 ± 0.5 µg/mL
  MIC100 (complete growth inhibition): 1.25 µg/mL (≈ 3.58 µM)
[5]; [10]
  MIC100 (complete growth inhibition): < 0.75 µg/mL
[6]
  MIC: < 0.75 µg/mL
[7]
  MIC100 (minimum concentration for complete growth inhibition): < 0.75 µg/mL
[8]
  Minimum inhibitory concentration (MIC100): < 0.75 µg/mL
